According to patent US5017618A, “Labile derivatives of ketone analogs of 3-substituted-1-alkylamino-2-propanols and their use as beta-adrenergic blockers” (priority 1989, dated 1991):

How the values were obtained:
[1] = In vivo distribution-metabolism in ocular tissues of rabbits; settings: rabbit, topical or ocular, 1 %
Procedure: (§1) Adult male New Zealand albino rabbits weighing 2.5-3.5 kg were used. Standard doses of 100 μl of 1% solution of the drugs in saline solution were administered topically to both eyes of each rabbit. After appropriate time intervals (30, 60 and 120 minutes), the animals were sacrificed. Aqueous humor was obtained by making a single puncture at the limbus using a 25 g×5/8" needle attached to 1 cm^3 syringe. Then the cornea and the iris-ciliary body were isolated. The tissues were pooled and homogenized using a Tekmar SDT tissuemizer in ice cold perchloric acid (0.05M) which contained 0.05% sodium metabisulfite as antioxidant. Samples were then rehomogenized in CH3 OH to prepare 10% homogenates, transferred to micro-filters and centrifuged for 20 minutes at 10000 r/minute to precipitate proteins. Aqueous humor was analyzed as such without any further dilution. Aliquots of 5-20 μl of the 10% tissue homogenate samples were analyzed by HPLC.

[2] = tested on: ocular tissues of rabbits; assay: as above; settings: for Concentration of propranolol: after topical propranolol.HCl 1a 1%
Procedure: as §1

rabbit eyes = assay: Local action of the drugs on the eyes (irritation, congestion, redness, lacrimation); assay type: in vivo, rabbit (male New Zealand albino); settings: for ocular irritation: 1% and 2.5%, both eyes, rabbits
[3] = in vivo
Procedure: A group of seven adult male Sprague-Dawley rats weighing 150-250 g was used. […] After 1, 3, 5, 20, 40 and 60 minutes, one mL of blood was withdrawn from the jugular vein and dropped immediately into a tared tube containing 1 mL of ice-cold acetonitrile. The tubes were vigorously shaken, centrifuged, decanted and analyzed for propranolol 1a and propranolone oxime 5a by HPLC. Quantitation was done by using a calibration curve obtained by addition of known amounts of propranolol oxime HCl 6a to blood obtained from a control rat pretreated with saline solution.
A high pressure liquid chromatography (HPLC) method was developed for the assay of the β-blockers and their ketoxime analogs in biological fluids. […] An ASI reverse phase chrompack C18 column, operated at ambient temperature, was used for all separation. The mobile phase used for separation of propranolol 1a and propranolone oxime 5a consisted of water (90 mL), 1-heptanesulfonic acid (1g), 0.1M acetic acid (10 mL), 0.1M triethanolamine (100 mL) and methanol (799 mL).

[4] = tested on: rabbit cornea (intraocular enzymes); assay type: in vivo; settings: rabbit, in vivo
Procedure: The tissue was homogenized in an alkaline buffer (pH 10.0) to give 10% (w/v) homogenate, and extracted twice with equal volumes of methylene chloride/diethyl ether mixture (1:4, v/v) by shaking for 15 minutes. The organic layer was separated, then re-extractedwith an equal volume of aqueous 0.1M hydrochloric acid solution. The aqueous phase was made alkaline (pH 10.0) and extracted with methylene chloride/diethyl ether, the organic layer was transferred to a deactivated glass vial, and the solvent was evaporated at reduced pressure under nitrogen stream. The residue was dissolved in 0.01M hydrochloric acid solution and analyzed by high-performance liquid chromatography (HPLC). A Supelcosil LC-8-DB analytical column (7.5 cm×4.6 mm i.d., 3 μm particle size) and mobile phase (1.5 mL/min flow rate) consisting of 30% acetonitrile in an aqueous buffer solution of 0.02M monobasic potassium phosphate (adjusted to pH 3.0 with phosphoric acid) and 0.01 (v/v) triethylamine. UV detection at 280 nm was applied. […] The same experiment was carried out by administering 1-(isopropylamino)-3-(2-allylphenoxy)-2-propanone oxime hydrochloride salt in 2% (w/v) aqueous solution. […]

[5] = tested on: IOP of rabbits, treated eye; assay: Unilateral administration, IOP of rabbits; assay type: in vivo, rabbit; settings: 0.5% and 1.0% solution in saline, one eye
Procedure: (§2) The animals were kept in individual cages with free access to food and water. Intraocular pressure was measured using a Digilab model 30R pneumatonometer. The pneumatonometer readings were checked at least twice a day using the Digilab calibration verifier. All measurements were obtained from unrestrained, unanesthetized rabbits. One drop of 0.5% propacaine (Ophthetic-Allergen Pharmaceuticals, Inc.) diluted 1:2 with saline was instilled in each eye immediately prior to IOP measurement. Drugs were administered as 1 or 2.5% solution in buffer pH 7.4 or in saline in both eyes of a group of at least four rabbits. Another group of at least three rabbits served as control and was administered the carrier only. IOP was recorded after 30 and 60 minutes and then after 2, 3, 4, 6 and 8 hours following the drug or carrier administration. Values are given as means ± standard error (S.E.) of the mean. The significance of the change was determined using the student's t-test.
The unilateral administration of propranolol oxime hydrochloride 6a was subsequently studied at two different concentrations, 0.5% and 1.0%. Drugs were administered as 0.5% or 1.0% solution in saline in one of the eyes of each animal in a group of five rabbits. The untreated eye of each rabbit served as a control and received vehicle only. IOP was recorded as described above. […]

[6] = tested on: Intraocular Pressure (IOP) of Rabbits; assay: Effect on the Intraocular Pressure (IOP) of Rabbits; assay type: in vivo, rabbit (male New Zealand albino)
Procedure: as §2, with “IOP was recorded after 30 and 60 minutes and then after 2, 3, 4, 6 and 8 hours following the drug or carrier administration.” left out

[7] = tested on: resting heart rate of rats; assay: Effect on resting heart rate in rats; assay type: in vivo, rat (male Sprague-Dawley); settings: 6 mg/kg i.v. (Example 6)
Procedure: (§3) Groups of seven male Sprague-Dawley rats weighing 150-250 g were used. Each animal was anesthetized with sodium pentobarbital (50 mg/kg) and the jugular vein was cannulated with PE50 tubing. This cannula was subcutaneously threaded around the neck and exteriorized dorsally. The cannula was filled with heparin solution ([…]) and sealed with a solid 22-gauge stylet. Animals were housed in individual stainless steel cages and at least 24 hours were allowed for recovery from the surgery. Food and water were provided ad libitum. On the day of the experiment, the heart rate of each rat was monitored with a plethsmograph and the data recorded on a Physioscribe II recorder. One hour was allowed as an equilibration period before any drugs were administered. Drugs were dissolved in normal saline as 0.3% solution and were administered intravenously at a dose of 6 mg/kg. The resting heart rate was then recorded after 1, 3, 5, 10 and 15 minutes following i.v. injection. […] A control group of seven animals was intravenously administered saline solution and was treated exactly in the same manner as the drug-treated groups. The significance of the difference between the effect of saline solution and the drugs under investigation on the resting heart rate and on isoprenaline tachycardia was analyzed using the student's "t" test. Values are given as mean ±S.E. of the mean. […] (.) carteolol HCl, 1c; .circle. propranolone ketoxime HCl, 6a; (.gradient.) timolone ketoxime oxalate, 6b; (Δ) N-isopropyl timolone ketoxime HCl, 6d; carteolone oxime HCl, 6c; and (---) saline solution. […] Drugs were administered to groups of 5 rats using a stomach tube and the heart rate was recorded for 1 hour. […] A control group of 5 rats was treated exactly in the same manner after the oral administration of the appropriate volume of saline solution.

[8] = tested on: isoprenaline-induced tachycardia; assay: Effect on isoprenaline-induced tachycardia in rats (β-adrenergic antagonist activity); assay type: in vivo, rat (male Sprague-Dawley); settings: rats; 6 mg/kg i.v.; isoprenaline 50 μg/kg s.c.; FIG. 1
Procedure: as §3

[9] = aqueous humor, Concentration of propranolol
[10] = aqueous humor, Tissue concentration
[11] = cornea, Concentration of propranolol
[12] = iris-ciliary body, Tissue concentration

CC(C)NCC(O)COc1cccc2ccccc12 (centres unmarked) [Propranolol 1a, 1-(isopropylamino)-3-(1-naphthyloxy)-2-propanol]
concentration at 0.5 h [1, 9]: 1280 ± 190 ng/g | concentration at 1 h [1, 9]: 260 ± 80 ng/g | concentration at 0.5 h [1, 10]: 40 ± 20 ng/g | concentration at 1 h [1, 10]: 710 ± 110 ng/g | concentration at 0.5 h [1, 11]: 47100 ± 5570 ng/g | concentration at 1 h [1, 11]: 14500 ± 2970 ng/g | concentration at 0.5 h ([1]; cornea, Tissue concentration): 1680 ± 750 ng/g | concentration at 1 h ([1]; cornea, Tissue concentration): 1140 ± 290 ng/g | concentration at 2 h ([1]; cornea, Tissue concentration): 1140 ± 220 ng/g | concentration at 0.5 h ([1]; iris-ciliary body, Concentration of propranolol): 8050 ± 1470 ng/g | concentration at 0.5 h [1, 12]: 2110 ± 290 ng/g | concentration at 1 h [1, 12]: 1790 ± 200 ng/g | concentration at 2 h [1, 12]: 430 ± 110 ng/g | Concentration of propranolol ([2]; aqueous humor, 120 min.): 0.00 ± 0.00 mcg/g tissue | Concentration of propranolol ([2]; cornea, 120 min.): 0.00 ± 0.00 mcg/g tissue | Concentration of propranolol ([2]; iris-ciliary body, 60 min.): 0.00 ± 0.00 mcg/g tissue | Concentration of propranolol ([2]; iris-ciliary body, 120 min.): 0.00 ± 0.00 mcg/g tissue | Tissue concentration ([2]; after topical propranolone oxime HCl 6a 1%, aqueous humor, 120 min.): 0.00 ± 0.00 mcg/g tissue | detection of propranolol in eye compartments ([2]; rabbit, in vivo): could be detected in measurable concentrations in the different eye compartments for the first two hours | detection of propranolol in eye tissues ([2]; rabbit, in vivo): could not be detected in any of the tested eye tissues | detection of propranolol in iris-ciliary body ([2]; rabbit, in vivo): completely disappeared from the iris-ciliary body | ocular irritation (rabbit eyes): ocular irritation which always accompanied propranolol administration at both dose levels | detection of propranolol in rat's blood [3]: not detected in rat's blood

CC(C)NCC(COc1cccc2ccccc12)=NO.Cl [Propranolone oxime HCl 6a, 1-(Isopropylamino)-3-(1-naphthyloxy)-2-propanone oxime hydrochloride]
metabolites identified in cornea [4]: Peaks were identified as the E- and Z-isomers of the ketoxime administered, as the corresponding ketone 1-(isopropylamino)-3-(naphthyloxy)-2-propanone, and as the β-adrenergic antagonist 1-(isopropylamino)-3-(naphthyloxy)-2-propanol(propranol) | irritant action, unilateral administration (rabbit eyes; 0.5% and 1.0% solution in saline, one eye): No irritant action was noted | ocular irritation (rabbit eyes): completely devoid of the ocular irritation | decrease in IOP, unilateral administration [5]: Significant decrease in the IOP was observed at both levels, only in the treated eye | % change after treatment (IOP) ([6]; 1% solution, 30 min.): -3.23% | IOP, treated ([6]; 1% solution, 30 min.): 26.9 ± 0.58 mm/Hg | % change after treatment (IOP) ([6]; 1% solution, 60 min.): -11.51% | IOP, treated ([6]; 1% solution, 60 min.): 24.0 ± 0.60 mm/Hg | % change after treatment (IOP) ([6]; 1% solution, 2 hrs.): -15.82% | IOP, treated ([6]; 1% solution, 2 hrs.): 23.4 ± 0.51 mm/Hg | % change after treatment (IOP) ([6]; 1% solution, 3 hrs.): -16.18% | IOP, treated ([6]; 1% solution, 3 hrs.): 23.3 ± 0.35 mm/Hg | % change after treatment (IOP) ([6]; 1% solution, 4 hrs.): -20.14% | IOP, treated ([6]; 1% solution, 4 hrs.): 22.2 ± 0.42 mm/Hg | % change after treatment (IOP) ([6]; 1% solution, 6 hrs.): -7.08% | IOP, treated ([6]; 1% solution, 6 hrs.): 25.8 ± 0.56 mm/Hg | % change after treatment (IOP) ([6]; 1% solution, 8 hrs.): +0.50% | IOP, treated ([6]; 1% solution, 8 hrs.): 27.9 ± 0.62 mm/Hg | % change after treatment (IOP) ([6]; 1% solution, time zero): 0.00% | IOP, treated ([6]; 1% solution, time zero): 27.8 ± 0.62 mm/Hg | % change after treatment (IOP) ([6]; 2.5% solution, 30 min.): +1.92% | IOP, treated ([6]; 2.5% solution, 30 min.): 26.5 ± 0.63 mm/Hg | % change after treatment (IOP) ([6]; 2.5% solution, 60 min.): -10.00% | IOP, treated ([6]; 2.5% solution, 60 min.): 23.4 ± 0.55 mm/Hg | % change after treatment (IOP) ([6]; 2.5% solution, 2 hrs.): -13.08% | IOP, treated ([6]; 2.5% solution, 2 hrs.): 22.6 ± 0.43 mm/Hg | % change after treatment (IOP) ([6]; 2.5% solution, 3 hrs.): -18.46% | IOP, treated ([6]; 2.5% solution, 3 hrs.): 21.2 ± 0.28 mm/Hg | IOP, treated ([6]; 2.5% solution, 4 hrs.): 20.4 ± 0.34 mm/Hg | % change after treatment (IOP) ([6]; 2.5% solution, 6 hrs.): -9.23% | IOP, treated ([6]; 2.5% solution, 6 hrs.): 23.6 ± 0.48 mm/Hg | % change after treatment (IOP) ([6]; 2.5% solution, 8 hrs.): -0.77% | IOP, treated ([6]; 2.5% solution, 8 hrs.): 25.8 ± 0.65 mm/Hg | % change after treatment (IOP) ([6]; 2.5% solution, time zero): 0.00% | IOP, treated ([6]; 2.5% solution, time zero): 26.0 ± 0.48 mm/Hg | ocular hypotensive activity compared with parent β-blocker ([6]; same dose levels, rabbits): much more pronounced and prolonged than that of propranolol itself | ocular hypotensive activity (in words) ([6]; topical, rabbits, dose levels used): has shown the highest activity at both tested concentration levels, 1 and 2.5% | activity on resting heart rate (negative chronotropic action) [7]: highest activity | β-adrenergic antagonist activity against isoprenaline-tachycardia [8]: most effective
